# Measurements from US20100197789A1, “ANTI-OBESITY AGENT AND USE THEREOF” (National University Corporation Nagoya University, priority 2006, published 2010).
# Columns and labels:
# Assay type in all cases: in vivo, mouse
# POMC mRNA [1] = assay: In situ hybridization, POMC mRNA in hypothalamic arcuate nucleus, db/db mice; settings: after 5 weeks, 1.1 and 2.7 mg/dl in drinking water, NIH image quantitation
# Protocol: (§1) 5 week-old male C57BL/KsJ-db/db mice (db/db mice: body weight 19 to 25 g, Japan SLC, Inc.) were purchased and individually fed in tip cages. For the db/db mice, normal pellet diet (CE-2) was administered under free water intake and free food intake. A body weight and a food intake amount over 24 hours were measured every day from the start of feeding. On day 3 after the start of feeding, blood was taken from an orbit after 6 hour-fasting and a blood glucose level and a blood insulin concentration were measured. The db/db mice were divided into three groups (10 mice per each group) so that a body weight, a 24 hour-food intake amount, a blood glucose level, and a blood insulin concentration were equal, and defined to be a control group, a low concentration baclofen treated group, and a high concentration baclofen treated group. […] A food intake amount and a body weight were measured over time during the period of 5 week-administration of (±)-baclofen, blood was taken after the end of the 5-week administration, and the db/db mice were sacrificed by cervical luxation. […] The epididymal white adipose tissues and subcutaneous white adipose tissues were measured in weights, and then fixed in 4% formaldehyde and preserved at 4° C. […]
# POMC mRNA [2] = assay: In situ hybridization, POMC mRNA in hypothalamic arcuate nucleus, DIO mice; settings: (±)-baclofen oral 5 weeks
# Protocol: A hypothalamic section with a thickness of 12 μm was prepared from the brain preserved at −80° C. by using a cryostat and stuck to a MAS coat slide and then in situ hybridization was performed. For a label of NPY mRNA and POMC mRNA probes, ^35S was used. The hypothalamic section was pretreated by using triethanolamine, ethanol and the like, and then 12 hour-hybridization was performed at 55° C. After the hybridization, the hypothalamic section was treated by washing with SSC, RNase, etc. After development to a film, the mRNA expression strength was assayed by using the NIH image.
# (±)-baclofen was orally administered to DIO mice for 5 weeks according to the above method, and then the DIO mice were sacrificed. A brain was surgically removed, and changes in expression amounts of NPY mRNA and POMC mRNA in the hypothalamic arcuate nucleus were examined by using an in situ hybridization method.
# DIO mice = assay: White adipose tissue weights and fat cell size, DIO mice; settings: (±)-baclofen 5 mg/kg/day oral 5 weeks
# Protocol: (±)-baclofen (5 mg/kg/day) was orally administered to DIO mice for 5 weeks according to the above described method, and then, blood was taken from an orbit after 6 hour-fasting, and a plasma leptin concentration and a plasma adiponectin concentration were measured. The DIO mice were sacrificed by cervical luxation after the end of the 5-week administration, and then epididymal white adipose tissues and subcutaneous white adipose tissues were surgically removed, and after measuring the weights, they were fixed in 4% formaldehyde. The epididymal white adipose tissues were cut out to prepare a section with a thickness of 8 μm and subjected to Hematoxylin-Eosin stain (H-E stain) and a form (size) of a fat cell was examined by using an image analysis system, Neurolucida (MicroBrightField Japan, Inc.).
# NPY mRNA = assay: In situ hybridization, NPY mRNA in hypothalamic arcuate nucleus, db/db mice; settings: after 5 weeks, 1.1 and 2.7 mg/dl in drinking water, NIH image quantitation
# Protocol: as §1
# db/db mice = assay: Food intake amount and body weight, 5 week-continuous oral administration in drinking water, db/db mice; settings: for body weight increase / food intake amount: oral, 5 weeks
# Protocol: 5 week-old male C57BL/KsJ-db/db mice (db/db mice: body weight 19 to 25 g, Japan SLC, Inc.) were purchased and individually fed in tip cages. For the db/db mice, normal pellet diet (CE-2) was administered under free water intake and free food intake. A body weight and a food intake amount over 24 hours were measured every day from the start of feeding. On day 3 after the start of feeding, blood was taken from an orbit after 6 hour-fasting and a blood glucose level and a blood insulin concentration were measured. The db/db mice were divided into three groups (10 mice per each group) so that a body weight, a 24 hour-food intake amount, a blood glucose level, and a blood insulin concentration were equal, and defined to be a control group, a low concentration baclofen treated group, and a high concentration baclofen treated group. After division into the groups, from day 5 after the start of feeding, (±)-baclofen was dissolved in drinking water and 5 week-continuous oral administration to the baclofen treated groups was started. (±)-baclofen was dissolved in drinking water at a concentration of 1.1 mg/dl in the low concentration treated group and at a concentration of 2.7 mg/dl in the high concentration treated group. A food intake amount and a body weight were measured over time during the period of 5 week-administration of (±)-baclofen, blood was taken after the end of the 5-week administration, and the db/db mice were sacrificed by cervical luxation. Brains, epididymal white adipose tissues, subcutaneous white adipose tissues and brown adipose tissues were surgically removed. The brains and brown adipose tissues were frozen in dry ice and liquid nitrogen immediately after the removal and then preserved at −80° C. The epididymal white adipose tissues and subcutaneous white adipose tissues were measured in weights, and then fixed in 4% formaldehyde and preserved at 4° C.
# 5 week-old male C57BL/KsJ-db/db mice (db/db mice: body weight 19 to 25 g, Japan SLC, Inc.) were purchased and individually fed in tip cages. For the db/db mice, normal pellet diet (CE-2) was administered under free water intake and free food intake. A body weight and a food intake amount over 24 hours were measured everyday from the start of feeding. On day 3 after the start of feeding, blood was taken from an orbit after 6 hour-fasting and a blood glucose level and a blood insulin concentration were measured. […] After division into the groups, from day 5 after the start of feeding, R-baclofen and S-baclofen were dissolved in drinking water and 5 week-continuous oral administration was started. […] A food intake amount and a body weight were measured over time, and a rectal temperature was measured 5 weeks after the start of the administration. Blood was taken after the 5-week administration of baclofen, and the db/db mice were sacrificed by cervical luxation.
# 5 week-old male C57BL/KsJ-db/db mice (db/db mice: body weight 19 to 25 g, Japan SLC, Inc.) were purchased and individually fed in tip cages. Normal pellet diet (CE-2) was administered to the db/db mice under free water intake and free food intake. A body weight and a food intake amount over 24 hours were measured every day from the start of feeding. On day 3 after the start of feeding, blood was taken from an orbit after 6 hour-fasting, and a blood glucose level and a blood insulin concentration were measured. The db/db mice were divided into five groups (10 mice per each group) so that a body weight, a 24 hour-food intake amount, a blood glucose level, and a blood insulin concentration were equal, and defined to be a control group and baclofen treated groups. (±)-baclofen was dissolved in drinking water at respective concentrations of 4×10^−6 M, 10×10^−6 M, 40×10^−6 M, and 100×10^−6 M, and continuously orally administered to the baclofen treated groups for 5 weeks. A food intake amount, a body weight and a water-drinking amount were measured over time during the period of 5 week-administration of (±)-baclofen. […]
# [3] = (±)-baclofen 1.1 mg/dl (low) and 2.7 mg/dl (high) in drinking water, vs control
# [4] = (±)-baclofen 1.1 and 2.7 mg/dl in drinking water, continued until end of experiment
# [5] = (±)-baclofen 4×10^−6 M in drinking water (roughly 0.2 mg/kg/day)
# [6] = (±)-baclofen 10×10^−6 M in drinking water (roughly 0.5 mg/kg/day)
# [7] = (±)-baclofen 40×10^−6 M in drinking water (roughly 2 mg/kg/day)
# [8] = (±)-baclofen 100×10^−6 M in drinking water (roughly 5 mg/kg/day)
structure (smiles),measurement,setting,value
"NCC(CC(=O)O)c1ccc(Cl)cc1 (racemic) [(±)-baclofen, (RS)-4-amino-3-(4-chlorophenyl)butanoic acid]",expression of POMC mRNA in the hypothalamic arcuate nucleus,POMC mRNA [1],significantly enhanced
same,expression of POMC mRNA in the hypothalamic arcuate nucleus,POMC mRNA [2],significantly increased
same,weight of epididymal white adipose tissues,DIO mice,significantly decreased
same,weight of subcutaneous white adipose tissues,DIO mice,significantly decreased
same,size of a fat cell in the epididymal white adipose tissues,DIO mice; H-E stain,decreased
same,expression of NPY mRNA in the hypothalamic arcuate nucleus,NPY mRNA,significantly suppressed
same,body weight increase,db/db mice; [3],significant body weight increase suppression
same,food intake amount,db/db mice; [3],significantly suppressed
same,time after start of administration from which body weight increase suppression was significant,db/db mice; [4],1 week
same,time after start of administration from which food intake suppression was significant,db/db mice; [4],1 week
same,time after start of administration from which body weight increase suppression was significant,db/db mice; [5],4 weeks
same,time after start of administration from which food intake suppression was significant,db/db mice; [5],4 weeks
same,body weight increase,db/db mice; [5],Significant suppression
same,food intake amount,db/db mice; [5],Significant suppression
same,time after start of administration from which body weight increase suppression was significant,db/db mice; [6],2 weeks
same,time after start of administration from which food intake suppression was significant,db/db mice; [6],2 weeks
same,body weight increase,db/db mice; [6],Significant suppression
same,food intake amount,db/db mice; [6],Significant suppression
same,time after start of administration from which body weight increase suppression was significant,db/db mice; [7],1 week
same,time after start of administration from which food intake suppression was significant,db/db mice; [7],1 week
same,body weight increase,db/db mice; [7],significantly suppressed
same,food intake amount,db/db mice; [7],significantly suppressed
same,time after start of administration from which body weight increase suppression was significant,db/db mice; [8],1 week
same,time after start of administration from which food intake suppression was significant,db/db mice; [8],1 week
same,body weight increase,db/db mice; [8],significantly suppressed
same,food intake amount,db/db mice; [8],significantly suppressed
